According to ChEMBL document CHEMBL1201862, “PubChem BioAssay data set” (2004):
Active and inactive are the calls of the source.

How the values were obtained:
[1] = cytotoxicity toward DRD oncogenic fibroblasts, dose response, cell-based, non-viral oncogenic, luminescence (AID 1934); assay type: functional; details: Homo sapiens
[2] = target: T1, Endoribonuclease toxin MazF (Escherichia coli K-12, UniProt P0AE70); test: fluorescent RNA oligo signal without MazF, dose response, counter-screen for MazEF activator project, biochemical, fluorescence, single-stranded RNase substrate (AID 588502); assay type: functional
T1 sequence (P0AE70 whole entry): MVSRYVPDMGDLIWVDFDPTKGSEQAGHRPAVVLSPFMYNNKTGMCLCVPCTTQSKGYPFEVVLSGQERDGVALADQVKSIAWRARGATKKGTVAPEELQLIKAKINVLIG

[3] = system: BJ; test: cytotoxicity toward BJ-TERT-LT-ST fibroblasts, dose response, cell-based, RAS-independent, luminescence (AID 1935); assay type: functional; details: Homo sapiens;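 note: BJ fibroblasts immortalized with TERT plus LT and ST oncogenes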
[4] = target: T1, Endoribonuclease toxin MazF; test: MazF toxin RNase activators, dose response, biochemical, fluorescence, single-stranded RNA substrate, uHTS hits (AID 588481); assay type: functional
[5] = system: BJ; test: cytotoxicity toward BJ-TERT fibroblasts, dose response, cell-based, RAS-independent, luminescence (AID 1933); assay type: functional; details: Homo sapiens
[6] = system: BJ; test: cells; assay type: functional, cell-based; details: Homo sapiens
[7] = target: G-protein coupled receptor 35 (Homo sapiens, UniProt Q9HC97); test: GPR35 antagonists blocking zaprinast-driven arrestin recruitment, primary screen, imaging, U2OS, beta-arrestin-GFP, zaprinast agonist (AID 2058); assay type: functional;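 note: antagonist potency meaning inhibition of agonist-induced arrestin redistribution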
[8] = target: T2, Epstein-Barr nuclear antigen 1 (Epstein-Barr virus (strain B95-8) (HHV-4) (Human herpesvirus 4), UniProt P03211); test: EBNA-1 inhibitors, dose response, biochemical, fluorescence polarization, 1536-well (AID 2381); parameters: species or system human gammaherpesvirus 4;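 note: fluorescence polarization of a Cy5 DNA probe bound by EBNA-1 protein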
T2 sequence (P03211 whole entry): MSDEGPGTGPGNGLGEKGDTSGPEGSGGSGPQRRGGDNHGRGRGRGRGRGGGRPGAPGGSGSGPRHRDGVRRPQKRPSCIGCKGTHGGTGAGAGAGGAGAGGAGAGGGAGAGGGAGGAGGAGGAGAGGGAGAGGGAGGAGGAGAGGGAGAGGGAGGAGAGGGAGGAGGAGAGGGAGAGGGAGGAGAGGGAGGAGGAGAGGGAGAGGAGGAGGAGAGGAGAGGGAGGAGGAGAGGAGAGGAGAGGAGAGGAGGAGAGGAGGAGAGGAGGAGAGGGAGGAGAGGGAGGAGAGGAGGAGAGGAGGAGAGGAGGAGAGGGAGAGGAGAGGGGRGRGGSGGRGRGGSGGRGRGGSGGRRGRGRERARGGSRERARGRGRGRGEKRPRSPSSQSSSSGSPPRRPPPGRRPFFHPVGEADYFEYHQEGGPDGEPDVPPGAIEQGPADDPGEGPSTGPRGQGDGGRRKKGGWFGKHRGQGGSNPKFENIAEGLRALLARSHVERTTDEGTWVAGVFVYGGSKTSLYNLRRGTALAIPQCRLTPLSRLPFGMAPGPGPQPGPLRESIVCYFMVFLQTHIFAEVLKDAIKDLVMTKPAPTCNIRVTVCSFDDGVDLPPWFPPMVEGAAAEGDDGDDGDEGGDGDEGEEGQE

[9] = target: T3, Lytic switch protein BZLF1 (Epstein-Barr virus (strain B95-8) (HHV-4) (Human herpesvirus 4), UniProt P03206); test: EBV ZTA inhibitors, dose response, counter-screen for EBNA-1 inhibitor project, biochemical, fluorescence polarization, Epstein-Barr virus, 1536-well (AID 2377); parameters: species or system human gammaherpesvirus 4;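 note: fluorescence polarization of Cy5-labelled ZRE DNA probe bound by purified Zta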
T3 sequence (P03206 whole entry): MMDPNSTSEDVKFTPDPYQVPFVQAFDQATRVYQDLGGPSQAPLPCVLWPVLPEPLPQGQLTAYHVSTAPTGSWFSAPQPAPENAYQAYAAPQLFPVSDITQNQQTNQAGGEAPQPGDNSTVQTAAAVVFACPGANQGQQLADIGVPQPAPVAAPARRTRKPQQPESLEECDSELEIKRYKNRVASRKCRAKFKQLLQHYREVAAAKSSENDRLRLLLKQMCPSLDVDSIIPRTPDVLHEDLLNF

[10] = target: T4, Acyl-homoserine lactone acylase PvdQ (Pseudomonas aeruginosa (strain LESB58), UniProt Q9I194); test: P. aeruginosa PvdQ acylase inhibitors, dose response, biochemical, fluorescence, plate reader and imaging, cherry-picks (AID 493231)
T4 sequence (Q9I194 whole entry): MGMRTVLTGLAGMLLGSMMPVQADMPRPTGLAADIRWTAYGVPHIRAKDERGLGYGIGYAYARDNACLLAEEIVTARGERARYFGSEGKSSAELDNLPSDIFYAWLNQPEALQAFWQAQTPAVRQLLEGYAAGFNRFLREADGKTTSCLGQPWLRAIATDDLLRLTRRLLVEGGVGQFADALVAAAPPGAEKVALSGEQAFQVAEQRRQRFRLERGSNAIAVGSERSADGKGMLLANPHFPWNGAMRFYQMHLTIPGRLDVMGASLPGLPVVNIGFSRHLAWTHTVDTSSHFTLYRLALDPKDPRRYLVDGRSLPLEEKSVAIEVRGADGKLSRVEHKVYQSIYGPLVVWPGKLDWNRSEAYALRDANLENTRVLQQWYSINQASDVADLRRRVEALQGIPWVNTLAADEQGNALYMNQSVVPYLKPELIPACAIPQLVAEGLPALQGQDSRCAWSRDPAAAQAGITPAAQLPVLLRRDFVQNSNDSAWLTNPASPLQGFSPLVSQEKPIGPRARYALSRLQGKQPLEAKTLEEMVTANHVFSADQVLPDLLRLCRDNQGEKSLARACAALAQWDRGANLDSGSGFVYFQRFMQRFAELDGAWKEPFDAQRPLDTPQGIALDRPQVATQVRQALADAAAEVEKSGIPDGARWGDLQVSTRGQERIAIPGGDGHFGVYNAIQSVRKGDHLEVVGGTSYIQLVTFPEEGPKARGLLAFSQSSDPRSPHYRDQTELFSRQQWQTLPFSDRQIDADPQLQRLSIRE

[11] = target: Luciferin 4-monooxygenase (Photinus pyralis, UniProt P08659); test: Counter Screen for Luciferase-based Assay Positives. [Related pubchem assays: 620, 618, 411 ]
[12] = system: HT-1080; test: cytotoxicity in HT1080 fibrosarcoma cells, cell-based, fluorescence readout (AID 620); assay type: functional; details: Homo sapiens
[13] = LGR2 antagonists, dose response, cell-based, HEK293, CRE-luciferase reporter, cherry pick, set 2 (AID 743343); assay type: functional;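 note: transfected cells were stimulated with diluted bursicon conditioned medium after compound addition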
[14] = MC4R antagonists, dose response, counter-screen for LGR2 antagonist project, cell-based, plate reader, cherry pick (AID 743444); assay type: functional;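 note: transfected HEK 293 cells stimulated with alpha-MSH peptide; potency of inhibitors of the alpha-MSH evoked signal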
[15] = HepG2 cell cytotoxicity, dose response, cytotoxicity control, plate reader, cherry-pick, antagonist series (AID 743416); assay type: functional, cell-based
[16] = target: T5, Short transient receptor potential channel 4 (Mus musculus, UniProt Q9QUQ5); test: mouse TRPC4 channel inhibitors, dose response, cell-based, HEK293 TRPC4/mu-opioid, Fluo-4 calcium (AID 434942); assay type: functional;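 note: potency of inhibitors blocking the TRPC4 calcium response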
T5 sequence (Q9QUQ5 whole entry): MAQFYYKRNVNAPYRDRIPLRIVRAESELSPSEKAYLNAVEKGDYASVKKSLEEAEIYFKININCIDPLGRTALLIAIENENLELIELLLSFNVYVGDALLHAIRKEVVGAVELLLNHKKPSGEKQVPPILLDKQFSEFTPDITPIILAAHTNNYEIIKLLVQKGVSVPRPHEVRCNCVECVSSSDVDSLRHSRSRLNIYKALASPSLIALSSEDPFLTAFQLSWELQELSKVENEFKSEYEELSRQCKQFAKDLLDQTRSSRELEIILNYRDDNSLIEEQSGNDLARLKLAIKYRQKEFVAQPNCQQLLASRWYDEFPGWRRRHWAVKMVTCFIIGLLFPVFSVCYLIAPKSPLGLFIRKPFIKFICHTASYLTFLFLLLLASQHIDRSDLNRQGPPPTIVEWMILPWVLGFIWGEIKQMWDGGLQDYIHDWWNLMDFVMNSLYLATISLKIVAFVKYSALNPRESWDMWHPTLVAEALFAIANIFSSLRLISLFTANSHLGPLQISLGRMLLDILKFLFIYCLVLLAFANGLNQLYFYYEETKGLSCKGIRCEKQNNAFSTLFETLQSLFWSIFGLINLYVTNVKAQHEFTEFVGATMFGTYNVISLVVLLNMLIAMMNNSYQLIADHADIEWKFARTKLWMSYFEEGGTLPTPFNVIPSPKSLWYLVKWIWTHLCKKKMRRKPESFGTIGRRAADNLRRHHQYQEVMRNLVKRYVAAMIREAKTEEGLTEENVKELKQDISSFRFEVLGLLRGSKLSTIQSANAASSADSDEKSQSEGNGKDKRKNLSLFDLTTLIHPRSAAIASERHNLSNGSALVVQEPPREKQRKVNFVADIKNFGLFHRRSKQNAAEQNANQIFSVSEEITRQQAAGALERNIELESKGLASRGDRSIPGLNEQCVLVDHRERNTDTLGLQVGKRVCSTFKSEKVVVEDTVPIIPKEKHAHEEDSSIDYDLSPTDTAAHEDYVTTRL

[17] = target: Prothrombin (Bos taurus, UniProt P00735); test: thrombin inhibition, dose response, biochemical, fluorescence polarization, uHTS hits (AID 602369); assay type: functional
[18] = target: 72 kDa type IV collagenase (Homo sapiens, UniProt P08253); test: Dose Response validation of uHTS RPN11 inhibitor hits using a MMP-2 Fluorescence assay.; assay type: functional
[19] = target: 26S proteasome non-ATPase regulatory subunit 14 (Homo sapiens, UniProt O00487); test: inhibition of proteasome subunit RPN11 – biochemical, fluorescence polarization, uHTS hits, confirmation (AID 602368); assay type: functional
[20] = enhancers of respiration in Yfh1-depleted yeast, dose response, Friedreich's ataxia, plus single-dose screen (AID 1465); assay type: functional;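 note: yeast depleted of Yfh1p frataxin homolog grown on glycerol needing respiration; WST-1 tetrazolium dye reduction as measure of cellular dehydrogenase metabolic activity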
[21] = target: G-protein coupled receptor 55 (Homo sapiens, UniProt Q9Y2T6); test: GPR55 agonists via beta-arrestin recruitment, primary screen, imaging, U2OS cells, beta-arrestin-GFP redistribution (AID 1961); assay type: functional
G-protein coupled receptor 55, sequence (Q9Y2T6 whole entry): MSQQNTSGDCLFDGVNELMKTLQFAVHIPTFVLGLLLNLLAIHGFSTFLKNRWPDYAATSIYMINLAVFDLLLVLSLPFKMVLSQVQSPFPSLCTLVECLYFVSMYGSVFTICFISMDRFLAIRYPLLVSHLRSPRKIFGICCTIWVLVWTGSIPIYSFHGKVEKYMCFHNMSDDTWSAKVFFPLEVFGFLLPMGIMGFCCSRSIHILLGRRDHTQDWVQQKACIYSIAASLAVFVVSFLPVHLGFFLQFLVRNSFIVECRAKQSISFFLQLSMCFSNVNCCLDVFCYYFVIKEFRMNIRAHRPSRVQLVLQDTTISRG

26S proteasome non-ATPase regulatory subunit 14, sequence (O00487 whole entry): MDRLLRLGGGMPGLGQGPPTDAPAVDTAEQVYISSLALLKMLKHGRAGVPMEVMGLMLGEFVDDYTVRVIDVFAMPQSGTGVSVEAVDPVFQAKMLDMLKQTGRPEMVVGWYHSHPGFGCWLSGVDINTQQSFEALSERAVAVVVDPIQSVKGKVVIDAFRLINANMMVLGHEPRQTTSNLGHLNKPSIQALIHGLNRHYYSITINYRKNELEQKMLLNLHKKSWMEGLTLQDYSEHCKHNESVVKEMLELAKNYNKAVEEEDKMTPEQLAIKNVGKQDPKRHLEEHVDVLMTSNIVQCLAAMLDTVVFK
Luciferin 4-monooxygenase, sequence (P08659 whole entry): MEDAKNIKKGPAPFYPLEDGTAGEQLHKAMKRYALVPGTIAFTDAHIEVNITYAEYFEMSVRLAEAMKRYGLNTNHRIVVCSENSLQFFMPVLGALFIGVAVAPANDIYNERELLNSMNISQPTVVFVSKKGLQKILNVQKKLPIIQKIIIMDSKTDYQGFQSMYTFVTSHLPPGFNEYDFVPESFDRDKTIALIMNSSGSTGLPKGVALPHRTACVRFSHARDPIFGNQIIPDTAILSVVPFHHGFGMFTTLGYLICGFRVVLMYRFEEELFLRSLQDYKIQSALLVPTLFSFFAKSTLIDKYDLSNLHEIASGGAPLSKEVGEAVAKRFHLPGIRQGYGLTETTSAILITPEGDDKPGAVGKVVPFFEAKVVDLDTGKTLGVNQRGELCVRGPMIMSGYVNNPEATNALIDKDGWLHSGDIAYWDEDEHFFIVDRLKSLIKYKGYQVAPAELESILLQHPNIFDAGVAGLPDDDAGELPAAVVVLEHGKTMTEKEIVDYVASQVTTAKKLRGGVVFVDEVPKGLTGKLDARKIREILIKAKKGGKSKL
G-protein coupled receptor 35, sequence (Q9HC97 whole entry): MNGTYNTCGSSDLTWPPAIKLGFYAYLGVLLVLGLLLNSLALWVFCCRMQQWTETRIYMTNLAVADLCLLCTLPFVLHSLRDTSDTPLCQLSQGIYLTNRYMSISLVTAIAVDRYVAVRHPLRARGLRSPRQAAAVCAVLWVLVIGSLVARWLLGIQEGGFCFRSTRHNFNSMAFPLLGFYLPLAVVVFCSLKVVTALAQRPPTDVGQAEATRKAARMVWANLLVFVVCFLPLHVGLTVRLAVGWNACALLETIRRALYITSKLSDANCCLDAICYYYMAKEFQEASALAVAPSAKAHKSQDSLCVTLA
72 kDa type IV collagenase, sequence (P08253 whole entry): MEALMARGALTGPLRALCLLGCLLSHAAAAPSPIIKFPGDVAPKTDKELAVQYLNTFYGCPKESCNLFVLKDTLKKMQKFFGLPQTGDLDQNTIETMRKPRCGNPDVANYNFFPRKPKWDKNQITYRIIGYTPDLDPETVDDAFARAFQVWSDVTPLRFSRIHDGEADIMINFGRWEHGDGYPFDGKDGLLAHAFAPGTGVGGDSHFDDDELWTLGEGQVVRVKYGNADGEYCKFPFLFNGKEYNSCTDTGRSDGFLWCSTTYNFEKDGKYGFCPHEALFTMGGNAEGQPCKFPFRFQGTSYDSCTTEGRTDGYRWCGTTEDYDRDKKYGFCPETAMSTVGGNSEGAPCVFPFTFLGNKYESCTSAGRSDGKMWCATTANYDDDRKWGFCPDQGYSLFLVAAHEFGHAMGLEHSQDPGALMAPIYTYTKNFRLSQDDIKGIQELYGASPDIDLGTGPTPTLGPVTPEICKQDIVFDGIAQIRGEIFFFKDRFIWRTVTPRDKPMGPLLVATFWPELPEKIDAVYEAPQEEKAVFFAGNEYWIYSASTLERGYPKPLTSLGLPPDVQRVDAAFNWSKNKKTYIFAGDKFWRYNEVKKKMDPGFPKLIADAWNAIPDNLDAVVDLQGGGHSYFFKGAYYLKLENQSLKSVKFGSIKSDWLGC

In the case of `COCCN1C(=O)/C(=C/c2ccc(N3CCCC3)cc2)SC1=S`, the EC50 [1] is reported as 49.7 µM (active), the EC50 [2] is reported as > 99 µM (inactive) and the EC50 [3] is reported as > 150 µM (not active). For the same compound, the EC50 [4] was > 99 µM (inactive), the EC50 [5] was 20.9 µM (inconclusive) and the EC50 [6] was > 150 µM (not active). The IC50 [7] was < 0.5 µM (active).
In the case of `N#Cc1c2ncn(CC(=O)c3ccc(Br)cc3)c(=O)c2c2n1CCC2`, the IC50 [8] is reported as 13.1 µM (not active) and the IC50 [9] is reported as > 111 µM (not active).
For `Cc1ccc(NC(=O)CSc2ccc(-c3ccc4c(c3)OCO4)nn2)cc1F`, the IC50 [8] was 4.44 µM (active) and the IC50 [9] was > 111 µM (not active).
For `COC(=O)c1cc(-c2cccc(OC)c2)on1`, the AC50 [10] was > 100 µM (inactive).
For `Oc1c2c(nc3cc(-c4ccc(F)cc4)nn13)CCCC2`, the EC50 [11] was 79.7 µM (active), the EC50 [12] was 33.8 µM (active) and the AC50 [13] was 7.51 µM (active). The AC50 [14] was 6.58 µM (active) and the AC50 [15] was > 52 µM (inactive).
In the case of `CCOC(=O)c1ccc(N2Cc3ccccc3C2=N)cc1`, the AC50 [10] is reported as 3.83 µM (active).
With `O=C1C=C(c2cccc(Cl)c2)C[C@@H](c2ccc(F)cc2)C1` the AC50 [10] was 9.81 µM (active).
For `CCn1c(=O)n(CCOC)c(=O)c2c3c(sc21)CCCC3`, the EC50 [16] was 1.19 µM (active).
For `O=[N+]([O-])c1ccc(N2CCCCC2)s1`, the IC50 [17] was 68 µM (active), the IC50 [18] was > 100 µM (inactive) and the IC50 [19] was 36.1 µM (active). For the same compound, the EC50 [20] was > 100 µM (active).
With `CN1C(=O)C(=Cc2ccc(N3CCOCC3)o2)C(=O)N(C)C1=O` the EC50 [20] was > 100 µM (active).
With `CCCN(CCC)Cc1c(C(=O)N/N=C/C(C)=C\c2ccccc2)nnn1-c1nonc1N` the EC50 [21] was 0.525 µM (active).
